# Tested on: hyperglycemic male KK mice
# Assay: Action in depressing blood glucose (Method 1)
# Type: in vivo
# Conditions: Mus musculus, po, 72 h, compound admixed with powder feed at 0.01% (ca. 10 mg/kg/day) for three days, plasma glucose vs control group, read-out: Rate of hypoglycemic activity (%) (blood glucose depression rate)
# Description: Action in Depressing Blood Glucose (Method 1)
# Each compound, admixed with powder feed F-2 (Funabashi Farm) was administered to hyperglycemic male KK mice each having a body weight of 40 g or more at a rate of 0.01% (ca. 10 mg/kg/day) for three days. Meanwhile, mice of a control group were fed with the powder feed only. Then, a blood sample was collected from the caudal vein of each mouse under no anesthesia and centrifuged. The blood glucose in the plasma thus obtained was determined using Glucoloader F (Product of A & T Co., Ltd.).
# The blood glucose depression rate were estimated from the following equation:
# Blood glucose depression rate (%)=[(Blood glucose in Control group−Blood glucose in administered group)/Blood glucose in Control group]×100
row,SMILES,inhibition in vivo at 10 mg/kg/day [%]
1,"CC(C)c1ccc(OC(Cc2ccc(OCCNC(=O)c3ccc(-c4ccccc4)nc3)cc2)C(=O)O)cc1 (centres unmarked) [Example 97, 2-(4-Isopropylphenoxy)-3-[4-[2-(2-phenylpyridine-5-carbonylamino)ethoxy]phenyl]propionic acid]",66
2,"CCOC(Cc1ccc(OCCNC(=O)c2ccc(-c3ccccn3)cc2)cc1)C(=O)O (centres unmarked) [Example 2, Sodium 2-ethoxy-3-[4-[2-(4-pyridine-2-ylbenzoylamino)ethoxy]phenyl]propionate]",43
3,"CCCCC(Cc1ccc(OCCNC(=O)c2ccc(-c3ccccc3OC)cc2)cc1)C(=O)O (centres unmarked) [Example 43, 2-Butyl-3-[4-[2-(2′-methoxybiphenyl-4-carbonylamino)ethoxy]phenyl]propionic acid]",20
4,"CCCCC(Cc1ccc(OCCNC(=O)c2ccc(-c3cccc(O)c3)cc2)cc1)C(=O)O (centres unmarked) [Example 34, 2-Butyl-3-[4-[2-(3′-hydroxybiphenyl-4-carbonylamino)ethoxy]phenyl]propionic acid]",22
5,"CC(C)c1ccc(OC(C)(Cc2ccc(OCCNC(=O)c3ccc(-c4ccccn4)cc3)cc2)C(=O)O)cc1 (centres unmarked) [Example 18, 2-(4-Isopropylphenoxy)-2-methyl-3-[4-[2-(4-pyridine-2-ylbenzoylamino)ethoxy]phenyl]propionic acid]",68
6,"Cc1ccc(OC(Cc2ccc(OCCNC(=O)c3ccc(-c4ccccn4)cc3)cc2)C(=O)O)cc1 (centres unmarked) [Example 115, 2-(4-Methylphenoxy)-3-[4-[2-(4-pyridine-2-ylbenzoylamino)ethoxy]phenyl]propionic acid]",66
7,"CCCCC(Cc1ccc(OCCCNC(=O)c2ccc(-c3ccccn3)cc2)cc1)C(=O)O (centres unmarked) [Example 70, 2-Butyl-3-[4-[3-(4-pyridine-2-ylbenzoylamino)propoxy]phenyl]propionic acid]",23
8,"O=C(NCCOc1ccc(CC(Oc2ccccc2)C(=O)O)cc1)c1ccc(-c2ccc(C(F)(F)F)cc2)cc1 (centres unmarked) [Example 82, 3-[4-[2-(4′-Trifluoromethylbiphenyl-4-carbonylamino)ethoxy]phenyl]-2-phenoxypropionic acid]",32
9,"CCCCC(Cc1ccc(OCCNC(=O)c2ccc(-c3cccc(OC)c3)cc2)cc1)C(=O)O (centres unmarked) [Example 32, 2-Butyl-3-[4-[2-(3′-methoxybiphenyl-4-carbonylamino)ethoxy]phenyl]propionic acid]",21
10,"CC(C)c1ccc(OC(Cc2ccc(OCCNC(=O)c3ccc(OCC(F)(F)C(F)F)nc3)cc2)C(=O)O)cc1 (centres unmarked) [Example 103, Sodium 3-[4-[2-[2-(2,2,3,3-tetrafluoropropoxy)pyridine-5-carbonylamino]ethoxy]phenyl]-2-(4-isopropylphenoxy)propionate]",48
11,"O=C(NCCOc1ccc(CC(Oc2ccc(OC(F)(F)F)cc2)C(=O)O)cc1)c1ccc(-c2ccccn2)cc1 (centres unmarked) [Example 127, 3-[4-[2-(4-Pyridine-2-ylbenzoylamino)ethoxy]phenyl]-2-(4-trifluoromethoxyphenoxy)propionic acid]",56
12,"CC(C)c1ccc(O[C@@H](Cc2ccc(OCCNC(=O)c3ccc(-c4ccccn4)cc3)cc2)C(=O)O)cc1 [Example 104, (S)-2-(4-Isopropylphenoxy)-3-[4-[2-(4-pyridine-2-ylbenzoylamino)ethoxy]phenyl]propionic acid]",73
13,"CC(C)c1ccc(OC(Cc2ccc(OCCNC(=O)c3ccc(-c4ccc([N+](=O)[O-])cn4)cc3)cc2)C(=O)O)cc1 (centres unmarked) [Example 109, 2-(4-Isopropylphenoxy)-3-[4-[2-[4-(3-nitropyridine-6-yl)benzoylamino]ethoxy]phenyl]propionic acid]",38
14,"O=C(NCCOc1ccc(CC(Oc2ccccc2)C(=O)O)cc1)c1ccc(-c2ccc(F)cc2)cc1 (centres unmarked) [Example 78, 3-[4-[2-(4′-Fluorobiphenyl-4-carbonylamino)ethoxy]phenyl]-2-phenoxypropionic acid]",53
15,"CCCC(Cc1ccc(OCCNC(=O)c2ccc(-c3ccccn3)cc2)cc1)C(=O)O (centres unmarked) [Example 74, 2-Propyl-3-[4-[2-(4-pyridine-2-ylbenzoylamino)ethoxy]phenyl]propionic acid]",60
16,"O=C(NCCOc1ccc(CC(Oc2ccc(F)cc2)C(=O)O)cc1)c1ccc(-c2ccccn2)cc1 (centres unmarked) [Example 119, 2-(4-Fluorophenoxy)-3-[4-[2-(4-pyridine-2-ylbenzoylamino)ethoxy]phenyl]propionic acid]",49
17,"CCCCC(Cc1ccc(OCCNC(=O)c2ccc(-c3cc(C)c(O)c(C)c3)cc2)cc1)C(=O)O (centres unmarked) [Example 48, Sodium 2-butyl-3-[4-[2-(4′-hydroxy-3′, 5′-dimethylbiphenyl-4-carbonylamino)ethoxy]phenyl]propionate]",37
18,"CCCCC(Cc1ccc(OCCNC(=O)c2ccc(-c3ccccn3)cc2)cc1)C(=O)O (centres unmarked) [Example 12, 2-butyl-3-[4-[2-(4-pyridine-2-ylbenzoylamino)ethoxy]phenyl]propionic acid]",42
19,"COC(=O)C(Cc1ccc(OCCNC(=O)c2ccc(-c3ccccn3)cc2)cc1)Sc1ccccc1 (centres unmarked) [Example 152, Methyl 2-phenylthio-3-[4-[2-(4-pyridine-2-ylbenzoylamino)ethoxy]phenyl]propionate]",58
20,"CCCCC(Cc1ccc(OCCNC(=O)c2ccc(-c3ccc(C=O)cc3)cc2)cc1)C(=O)O (centres unmarked) [Example 27, 2-Butyl-3-[4-[2-(4′-formylbiphenyl-4-carbonylamino)ethoxy]phenyl]propionic acid]",35
21,"CC(C)c1ccc(OC(Cc2ccc(OCCNC(=O)c3ccc(-c4ccc(C(F)(F)F)cn4)cc3)cc2)C(=O)O)cc1 (centres unmarked) [Example 107, 2-(4-isopropylphenoxy)-3-[4-[2-[4-(3-trifluoromethylpyridine-6-yl)benzoylamino]ethoxy]phenyl]propionic acid]",38
22,"O=C(NCCOc1ccc(CC(Oc2cc(F)c(F)c(F)c2)C(=O)O)cc1)c1ccc(-c2ccccn2)cc1 (centres unmarked) [Example 143, 2-(3,4,5-Trifluorophenoxy)-3-[4-[2-(4-pyridine-2-ylbenzoylamino)ethoxy]phenyl]propionic acid]",43
23,"O=C(NCCOc1ccc(CC(Oc2ccc(C(F)(F)F)cc2)C(=O)O)cc1)c1ccc(-c2ccccn2)cc1 (centres unmarked) [Example 123, 3-[4-[2-(4-Pyridine-2-ylbenzoylamino)ethoxy]phenyl]-2-(4-trifluoromethylphenoxy)propionic acid]",43
24,"CC(C)c1ccc(OC(Cc2ccc(OCCNC(=O)c3ccc(-c4ccccn4)cc3)cc2)C(=O)O)cc1 (centres unmarked) [Example 10, 2-(4-isopropylphenoxy)-3-[4-[2-(4-pyridine-2-ylbenzoylamino)ethoxy]phenyl]propionic acid]",64

# Same assay, conditions: compound admixed with powder feed at 0.01% (ca. 10 mg/kg/day) for three days, plasma glucose vs control group
row,SMILES,Rate of hypoglycemic activity (%) (blood glucose depression rate)
1,"CCCCC(Cc1ccc(OCCNC(=O)c2ccc(N(CC)CC)cc2)cc1)C(=O)O (centres unmarked) [Example 62, 2-Butyl-3-[4-[2-(4-N,N-dietylaminobenzoylamino)ethoxy]phenyl]propionic acid]",16
2,"O=C(NCCOc1ccc(CC(Oc2c(F)c(F)c(F)c(F)c2F)C(=O)O)cc1)c1ccc(-c2ccccn2)cc1 (centres unmarked) [Example 145, 2-Pentafluorophenoxy-3-[4-[2-(4-pyridine-2-ylbenzoylamino)ethoxy]phenyl]propionic acid]",28

# Source: US6528525B1, “Amidocarboxylic acid derivatives” (Sankyo Company, Limited, priority 1998, dated 2003)
